Consider 13 compounds from the supplement of paper PMC11451515.

SMILES strings stand for the structures.

Test in all cases: AUC of viability dose-response curve (% viability x log10 dose units); higher = less sensitive
Common to all, as to details: 48 h

One assay deals with SEM cells. The method, boiled down: (§1)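 Leukemia cells adapted to each medium were seeded at 500 or 1000 cells/well in 1536-well plates and dosed with library compounds in DMSO at 11 threefold doses from 47 μM to 0.79 nM for 48 h at 37°C. CellTiter-Glo One luminescence was normalised per plate to DMSO and cell-free wells, then fitted with a four-parameter log-logistic model over log10 doses. Area under the curve was taken from this fit by the trapezoidal rule, with curves above full viability scaled and curves failing quality control removed.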

The next assay concerns P12-Ichikawa. The method, boiled down: as §1
A further assay relates to NOMO1. The method, boiled down:
as §1

Setting [1] is: RPMI 5 mM glucose + 10% dialyzed FBS.

Turning to `COC(=O)Nc1ccc(-c2nc(N3CCOCC3)c3cnn(C4CCN(Cc5cccnc5)CC4)c3n2)cc1`, the “AUC of viability dose-response curve” value in the assay with SEM cells (HPLM + 10% dialyzed FBS) was determined as 292; with SEM cells (RPMI 5 mM glucose + 10% FBS), 242; in the assay with SEM cells (setting [1]), 249; in the assay with P12-Ichikawa (HPLM + 10% dialyzed FBS), 355; in the assay with P12-Ichikawa (RPMI 5 mM glucose + 10% FBS), 323; in the assay on P12-Ichikawa (setting [1]), 314. Besides, the “AUC of viability dose-response curve” value with NOMO1 (HPLM + 10% dialyzed FBS) came out at 298; in the assay with NOMO1 (RPMI 5 mM glucose + 10% FBS), 361; in the assay with NOMO1 (setting [1]), 319.

As to `O=C(O)CCNc1cc(N2CCc3ccccc3CC2)nc(-c2ccccn2)n1`, the “AUC of viability dose-response curve” value came out at 463 in the assay on SEM cells (HPLM + 10% dialyzed FBS); 434 in the assay with SEM cells (RPMI 5 mM glucose + 10% FBS); 463 in the assay on SEM cells (setting [1]); 463 in the assay with P12-Ichikawa (HPLM + 10% dialyzed FBS); 454 in the assay with P12-Ichikawa (RPMI 5 mM glucose + 10% FBS); 459 in the assay with P12-Ichikawa (setting [1]). Also, the “AUC of viability dose-response curve” value in the assay with NOMO1 (HPLM + 10% dialyzed FBS) stood at 448; in the assay with NOMO1 (RPMI 5 mM glucose + 10% FBS), 456; in the assay with NOMO1 (setting [1]), 452.

As for `CN(C)CC[C@H](CSc1ccccc1)Nc1ccc([S+](=O)([O-])NC(=O)c2ccc(N3CCN(Cc4ccccc4-c4ccc(Cl)cc4)CC3)cc2)cc1[N+](=O)[O-]`, the “AUC of viability dose-response curve” value with SEM cells (HPLM + 10% dialyzed FBS) was 195; in the assay with SEM cells (RPMI 5 mM glucose + 10% FBS), 218; in the assay with SEM cells (setting [1]), 191; with P12-Ichikawa (HPLM + 10% dialyzed FBS), 321; with P12-Ichikawa (RPMI 5 mM glucose + 10% FBS), 354; in the assay with P12-Ichikawa (setting [1]) it was 338. Besides, the “AUC of viability dose-response curve” value in the assay on NOMO1 (HPLM + 10% dialyzed FBS) was determined as 363; in the assay on NOMO1 (RPMI 5 mM glucose + 10% FBS) it was 388; in the assay on NOMO1 (setting [1]), 324.

For `COc1nccc(-c2c(-c3ccc(F)cc3)ncn2C2CCC(O)CC2)n1` (configuration not stated), the “AUC of viability dose-response curve” value in the assay with SEM cells (HPLM + 10% dialyzed FBS) was 459; in the assay on SEM cells (RPMI 5 mM glucose + 10% FBS) it was 320; with SEM cells (setting [1]), 438; with P12-Ichikawa (HPLM + 10% dialyzed FBS) it was 443; with P12-Ichikawa (RPMI 5 mM glucose + 10% FBS), 465; with P12-Ichikawa (setting [1]) it was 462. Further, the “AUC of viability dose-response curve” value was 463 with NOMO1 (HPLM + 10% dialyzed FBS), 458 in the assay with NOMO1 (RPMI 5 mM glucose + 10% FBS) and 465 in the assay with NOMO1 (setting [1]).

For `C=CCc1cc(OC)c(O)c(C(=O)NCCO)c1`, the “AUC of viability dose-response curve” value with SEM cells (HPLM + 10% dialyzed FBS) was 448; in the assay on SEM cells (RPMI 5 mM glucose + 10% FBS) it was 442; with SEM cells (setting [1]), 454; in the assay with P12-Ichikawa (HPLM + 10% dialyzed FBS) it was 457; with P12-Ichikawa (RPMI 5 mM glucose + 10% FBS), 460; with P12-Ichikawa (setting [1]), 466. Moreover, the “AUC of viability dose-response curve” value worked out at 449 in the assay with NOMO1 (HPLM + 10% dialyzed FBS), 462 in the assay on NOMO1 (RPMI 5 mM glucose + 10% FBS) and 446 in the assay on NOMO1 (setting [1]).

Take `O=C(Nc1ccc([N+](=O)[O-])cc1Cl)c1cc(Cl)ccc1O`: the “AUC of viability dose-response curve” value was 369 in the assay on SEM cells (HPLM + 10% dialyzed FBS); 336 in the assay on SEM cells (RPMI 5 mM glucose + 10% FBS); 370 in the assay on SEM cells (setting [1]); 386 with P12-Ichikawa (HPLM + 10% dialyzed FBS); 368 in the assay with P12-Ichikawa (RPMI 5 mM glucose + 10% FBS); 335 in the assay on P12-Ichikawa (setting [1]). Also, the “AUC of viability dose-response curve” value in the assay with NOMO1 (HPLM + 10% dialyzed FBS) stood at 375; with NOMO1 (RPMI 5 mM glucose + 10% FBS), 363; in the assay with NOMO1 (setting [1]) it was 372.

Turning to `CN1/C=C(\N=C(NC2=CC=C(C=C2)C(=O)N3CCOCC3)/C1=O)/C4=C(C)C(=CC=C4)NC(=O)C5=CC=C(C=C5)C(C)(C)C`, the “AUC of viability dose-response curve” value in the assay on SEM cells (HPLM + 10% dialyzed FBS) came out at 468; with SEM cells (RPMI 5 mM glucose + 10% FBS), 443; with SEM cells (setting [1]) it was 458; in the assay with P12-Ichikawa (HPLM + 10% dialyzed FBS), 458; in the assay on P12-Ichikawa (RPMI 5 mM glucose + 10% FBS), 466; in the assay with P12-Ichikawa (setting [1]), 467. The entries for the “AUC of viability dose-response curve” value in the assay on NOMO1 (HPLM + 10% dialyzed FBS), with NOMO1 (RPMI 5 mM glucose + 10% FBS) and with NOMO1 (setting [1]) were 466, 430 and 454, respectively.

Take `CCOc1cc(/C=C2/C(=O)N(c3ccccc3)N=C2C)cc(Cl)c1OCC(=O)OC`: the “AUC of viability dose-response curve” value was found to be 386 in the assay on SEM cells (HPLM + 10% dialyzed FBS); 422 in the assay on SEM cells (RPMI 5 mM glucose + 10% FBS); 383 with SEM cells (setting [1]); 424 in the assay on P12-Ichikawa (HPLM + 10% dialyzed FBS); 408 in the assay on P12-Ichikawa (RPMI 5 mM glucose + 10% FBS); 418 with P12-Ichikawa (setting [1]). Besides, the “AUC of viability dose-response curve” value with NOMO1 (HPLM + 10% dialyzed FBS) came out at 432; in the assay on NOMO1 (RPMI 5 mM glucose + 10% FBS), 413; in the assay with NOMO1 (setting [1]) it was 425.

As for `C[C@@H](NCc1cc2ccccc2[nH]1)c1cccc2ccccc12`, the “AUC of viability dose-response curve” value is 409 with SEM cells (HPLM + 10% dialyzed FBS); 406 with SEM cells (RPMI 5 mM glucose + 10% FBS); 413 with SEM cells (setting [1]); 441 in the assay with P12-Ichikawa (HPLM + 10% dialyzed FBS); 434 in the assay on P12-Ichikawa (RPMI 5 mM glucose + 10% FBS); 414 in the assay with P12-Ichikawa (setting [1]). In addition, the “AUC of viability dose-response curve” value was 443 in the assay with NOMO1 (HPLM + 10% dialyzed FBS), 428 in the assay with NOMO1 (RPMI 5 mM glucose + 10% FBS) and 449 with NOMO1 (setting [1]).

Consider `Cc1ccc(NC(=O)c2cccc(N(C)C)c2)cc1NC(=O)c1ccc(O)cc1`, for which the “AUC of viability dose-response curve” value in the assay on SEM cells (HPLM + 10% dialyzed FBS) was 457; in the assay on SEM cells (RPMI 5 mM glucose + 10% FBS) it was 474; in the assay with SEM cells (setting [1]), 450; with P12-Ichikawa (HPLM + 10% dialyzed FBS), 456; in the assay on P12-Ichikawa (RPMI 5 mM glucose + 10% FBS) it was 461; in the assay on P12-Ichikawa (setting [1]) it was 446. Moreover, the results for the “AUC of viability dose-response curve” value with NOMO1 (HPLM + 10% dialyzed FBS), in the assay on NOMO1 (RPMI 5 mM glucose + 10% FBS) and with NOMO1 (setting [1]) were 472, 464 and 470, respectively.

Consider `Cc1cccc(N(C)C(=S)Oc2ccc3ccccc3c2)c1`, for which the “AUC of viability dose-response curve” value with SEM cells (HPLM + 10% dialyzed FBS) came out at 445; in the assay with SEM cells (RPMI 5 mM glucose + 10% FBS), 470; with SEM cells (setting [1]) it was 476; in the assay with P12-Ichikawa (HPLM + 10% dialyzed FBS) it was 469; in the assay on P12-Ichikawa (RPMI 5 mM glucose + 10% FBS) it was 466; in the assay on P12-Ichikawa (setting [1]), 471. Further, the “AUC of viability dose-response curve” value in the assay on NOMO1 (HPLM + 10% dialyzed FBS) is 460; with NOMO1 (RPMI 5 mM glucose + 10% FBS), 470; in the assay on NOMO1 (setting [1]), 469.

Turning to `CC1=CC=C2\N=C/3N(CC[C@@]3(O)C(=O)C2=C1)C4=CC=CC=C4`, the “AUC of viability dose-response curve” value came to 431 with SEM cells (HPLM + 10% dialyzed FBS); 438 in the assay on SEM cells (RPMI 5 mM glucose + 10% FBS); 413 with SEM cells (setting [1]); 442 in the assay on P12-Ichikawa (HPLM + 10% dialyzed FBS); 420 in the assay on P12-Ichikawa (RPMI 5 mM glucose + 10% FBS); 400 in the assay with P12-Ichikawa (setting [1]). Besides, the figures for the “AUC of viability dose-response curve” value in the assay on NOMO1 (HPLM + 10% dialyzed FBS), in the assay with NOMO1 (RPMI 5 mM glucose + 10% FBS) and with NOMO1 (setting [1]) were 452, 403 and 425, respectively.

Take `COc1cc(NC(=O)c2ccc(-c3ccc(Cl)cc3)o2)cc(OC)c1`: the “AUC of viability dose-response curve” value with SEM cells (HPLM + 10% dialyzed FBS) was found to be 457; in the assay on SEM cells (RPMI 5 mM glucose + 10% FBS), 465; in the assay on SEM cells (setting [1]), 463; in the assay with P12-Ichikawa (HPLM + 10% dialyzed FBS) it was 471; with P12-Ichikawa (RPMI 5 mM glucose + 10% FBS), 472; in the assay on P12-Ichikawa (setting [1]) it was 472. The “AUC of viability dose-response curve” value in the assay on NOMO1 (HPLM + 10% dialyzed FBS) came to 412; with NOMO1 (RPMI 5 mM glucose + 10% FBS), 432; in the assay on NOMO1 (setting [1]), 418.
